The values that follow come from US8299097B2, “Methods for treating inflammatory disorders” (The Brigham and Women's Hospital, Inc., priority 2008, dated 2012).

Experiment [1] deals with T1, human CysLT1R (Homo sapiens, UniProt Q9Y271).
T1 construct: expressed in transfected cells
T1 sequence (Q9Y271 1-337): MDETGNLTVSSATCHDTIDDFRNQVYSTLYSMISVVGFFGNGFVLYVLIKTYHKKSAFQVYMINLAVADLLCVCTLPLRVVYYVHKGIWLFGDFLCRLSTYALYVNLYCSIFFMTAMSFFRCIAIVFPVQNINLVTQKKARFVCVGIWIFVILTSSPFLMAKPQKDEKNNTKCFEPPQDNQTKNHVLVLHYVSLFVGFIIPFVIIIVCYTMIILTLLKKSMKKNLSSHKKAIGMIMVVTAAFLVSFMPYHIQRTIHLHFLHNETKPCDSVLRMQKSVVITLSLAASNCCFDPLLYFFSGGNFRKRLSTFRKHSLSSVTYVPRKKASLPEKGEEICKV
As to the kind of experiment: ERK activation in CysLT1R CHO transfectants. Type of experiment: cell-based. The protocol: FIG. 1. Activation by recombinant human P2Y12 receptors in response to cys-LTs. The human P2Y12 receptor cDNA was cloned in forward and reverse orientation into the expression vector pEF1/His B and transfected into CHO cells using Fugene HD reagent. Stably-expressing clones were selected using G418 (1000 μg/ml), and expression of the construct was confirmed by cytofluorographic detection of the HIS tag. 1A. […] 1B. SDS-PAGE immunoblots showing phosphorylation of ERK2 by CHO cells stably expressing human P2Y12 receptors in reverse (negative control) or forward orientations. […] The blots were stripped and re-probed with an antibody (Ab) recognizing total ERK1 and ERK2. […] 1C. Effect of the selective P2Y12 receptor antagonist 2-MesAMP (MeS) on ligand-induced ERK phosphorylation. P2Y12 receptor expressing CHO cells were stimulated with the same doses of agonists used in 1A, in the absence or presence of 2-MesAMP (100 μM). 1D. Comparison of P2Y12 receptor-mediated responses to cys-LTs with those of recombinant human CysLT1R and CysLT2R expressed in CHO cells, and the effect of the CysLT1R antagonist MK571 (1 μM).
A P2Y12 receptor cDNA was amplified by reverse transcriptase polymerase chain reaction (RT-PCR) from RNA extracted from primary hMCs and cloned into a mammalian expression vector. Expression was confirmed by detection of a histidine (HIS) tag by flow cytometry. […]

Experiment [2] concerns the target P2Y12 receptors (Mus musculus, UniProt Q9CPV9). As to the kind of experiment: Clopidogrel effect on LTE4-mediated amplification of OVA-induced pulmonary inflammation. The class given is in vivo. The arrangement: from tissue; host or cells: whole animal: BALB/c (OVA model) and C57BL/6 (Der f model) mice. The following applies: whole lung RNA 24 h after last OVA challenge. The protocol:
FIG. 4. […] 4A. […] Clopidogrel (500 μg/ml) was added to the drinking water of the indicated groups of mice for 72 h before the first intranasal dose of LTs, and was maintained throughout the treatment. Results are mean±SEM from at least 9 mice in each group. The experiments were repeated three times with similar results. 4B. PAS stains (left column) from representative mice in the indicated groups showing the effect of clopidigrel on goblet cell metaplasia. Higher magnification images of H & E stains (right) from the same animals showing cellular characteristics of the bronchovascular infiltrates. 4C. Effect of clopidogrel administration on the steady-state expression of IL-13 and MUC5AC mRNA as determined by real-time PCR of whole lung RNA extracted 24 h after the last OVA challenge of the indicated groups. Data are mean±SEM from 4-5 mice/group from a single experiment. Results in a second experiment were similar 4D-4F. […] 4D. Total cell numbers (top), percentages of eosinophils (middle), and total numbers of eosinophils in BAL fluid recovered 24 h after the last challenge with OVA. 4E. Goblet cell metaplasia (top) and representative PAS stains (bottom) from wild-type and p2ry12^−/− mice subjected to the same protocol. 4E. Inflammation scores from the same mice. Data in 4D-4F are from 4 mice per group. Results in a second experiment were similar 4G. BALB/c Cysltr1/Cysltr2^−/− mice and age-matched WT controls were subjected to the same protocol as the p2ry12^−/− mice. Total cell numbers (top), percentages of eosinophils (middle), and total numbers of eosinophils in BAL fluid recovered 24 h after the last challenge with OVA. Results are from 6 mice per group. Three experiments were performed with similar results. 4H. Goblet cell numbers (top) and representative PAS stains (bottom). 4I. Quantitative assessment of bronchovascular inflammation as determined by H & E stains. Results are from 6 mice/group.
FIG. 5. Effect of clopidogrel on LTE4-mediated amplification of pulmonary inflammation. 5A. […] The indicated mice were treated with clopidogrel for 72 h before the first dose of leukotriene. Results are mean±SEM from a minimum of 9 mice in each group. 5B. PAS stains (left column) from representative mice in the indicated groups showing the effect of clopidigrel on goblet cell metaplasia. Higher magnification images of H & E stains (right) from the same animals showing cellular characteristics of the bronchovascular infiltrates. 5C. Effect of clopidogrel administration on the steady-state expression of IL-13 and MUC5AC mRNA as determined by real-time PCR of whole lung RNA extracted 24 h after the last OVA challenge of the indicated groups. Data are mean±SEM from 4-5 mice/group. […]

Chain of P2Y12 receptors (Q9CPV9 whole entry): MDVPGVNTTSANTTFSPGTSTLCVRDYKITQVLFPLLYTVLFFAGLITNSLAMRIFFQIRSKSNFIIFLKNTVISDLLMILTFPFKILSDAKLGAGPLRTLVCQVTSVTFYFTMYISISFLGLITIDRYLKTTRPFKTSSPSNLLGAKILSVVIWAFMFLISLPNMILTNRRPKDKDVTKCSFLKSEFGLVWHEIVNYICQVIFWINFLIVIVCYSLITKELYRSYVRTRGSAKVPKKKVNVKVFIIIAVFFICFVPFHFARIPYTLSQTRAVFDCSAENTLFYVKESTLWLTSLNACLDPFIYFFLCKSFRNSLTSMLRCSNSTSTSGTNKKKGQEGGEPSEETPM

On to `CN(C)C(=O)CCSC(SCCC(=O)O)c1cccc(/C=C/c2ccc3ccc(Cl)cc3n2)c1` (centres unmarked) [MK571], for which, in experiment [1], the “effect on cys-LT-induced ERK activation” value is “susceptible”.
In the case of `CCCCC/C=C\C\C=C/C=C/C=C/[C@@H](SC[C@H](N)C(=O)O)[C@@H](O)CCCC(=O)O` [LTE4], the “lung expression of IL-13 and MUC5AC mRNA (real-time PCR)” value in experiment [2] is listed as “tended to increase the expression of both transcripts”.
